Read-outs that look alike come from different tables or passages of the source.
How the values were obtained:
[1] = molecular target: T1, Trypsin (Bos taurus, UniProt P00760); test: Inhibitory effect on ester-hydrolyzing activity of trypsin (TAMe substrate); assay type: biochemical; settings: for IC50: pH 8.6, 37° C., Table 4 bracketed value, read-out: Trypsin ID50; for inhibition at 1000 µM: read-out: Trypsin percent inhibition
T1 sequence (P00760 24-246): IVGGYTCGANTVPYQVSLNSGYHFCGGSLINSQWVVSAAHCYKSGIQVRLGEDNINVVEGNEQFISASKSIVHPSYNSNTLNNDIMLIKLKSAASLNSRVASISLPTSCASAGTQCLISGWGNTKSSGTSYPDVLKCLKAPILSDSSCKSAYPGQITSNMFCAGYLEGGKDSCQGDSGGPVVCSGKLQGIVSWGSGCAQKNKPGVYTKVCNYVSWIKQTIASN
Description: (§1) The enzyme-inhibitory activities in vitro of the compounds of this invention were measured by the following procedure according to the method of M. Muramatsu et al. [[…]. […] After the incubation, 1.5 ml of 2 M alkaline hydroxylamine was added and thoroughly mixed, and allowed to stand at room temperature for 15 minutes.

[2] = molecular target: T2, Human Cl Esterase (Homo sapiens, UniProt P09871); test: Inhibitory effect on ester-hydrolyzing activity of human Cl esterase (ATEe substrate); assay type: biochemical; settings: for inhibition at 1000 µM: read-out: Cl-esterase percent inhibition; for IC50: pH 7.4, Table 4 bracketed value, read-out: Cl-esterase ID50
T2 sequence (P09871 438-688 limits assumed): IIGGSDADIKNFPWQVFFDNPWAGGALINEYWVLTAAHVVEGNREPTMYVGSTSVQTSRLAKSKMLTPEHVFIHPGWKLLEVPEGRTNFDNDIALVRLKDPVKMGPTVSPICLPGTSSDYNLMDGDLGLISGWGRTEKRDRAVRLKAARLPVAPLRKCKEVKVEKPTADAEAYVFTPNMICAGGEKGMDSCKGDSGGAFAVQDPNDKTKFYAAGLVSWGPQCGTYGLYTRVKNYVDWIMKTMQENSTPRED
T2 sequence (P09871 16-437 partner limits assumed): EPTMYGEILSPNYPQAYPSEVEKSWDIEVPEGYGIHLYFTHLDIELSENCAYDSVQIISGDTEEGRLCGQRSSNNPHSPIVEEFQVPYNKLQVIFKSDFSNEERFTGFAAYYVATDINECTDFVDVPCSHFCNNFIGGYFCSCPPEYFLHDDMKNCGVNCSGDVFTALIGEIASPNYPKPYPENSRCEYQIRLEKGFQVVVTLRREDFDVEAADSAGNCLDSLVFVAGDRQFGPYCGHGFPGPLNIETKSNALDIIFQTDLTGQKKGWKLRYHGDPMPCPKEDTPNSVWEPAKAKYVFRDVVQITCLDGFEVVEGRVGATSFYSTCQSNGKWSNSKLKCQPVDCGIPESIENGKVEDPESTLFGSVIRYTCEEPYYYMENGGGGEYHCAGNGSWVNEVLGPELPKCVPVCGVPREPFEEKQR
Description: It was measured by using 0.1 ml of Cl esterase, 0.1 ml of 0.02 M sodium phosphate buffer solution (pH 7.4 ) and 10 μmoles of ATEe (acetyltyrosine ethyl ester) as substrate following the method described in (1).

[3] = molecular target: Human Plasma Kallikrein (Homo sapiens, UniProt P03952); test: Inhibitory effect on ester-hydrolyzing activity of human plasma kallikrein (TAMe substrate); assay type: biochemical; settings: for IC50: Table 4 bracketed value, read-out: Kallikrein ID50; for inhibition at 1000 µM: read-out: Kallikrein percent inhibition
Chain of Human Plasma Kallikrein (P03952 391-638 limits assumed): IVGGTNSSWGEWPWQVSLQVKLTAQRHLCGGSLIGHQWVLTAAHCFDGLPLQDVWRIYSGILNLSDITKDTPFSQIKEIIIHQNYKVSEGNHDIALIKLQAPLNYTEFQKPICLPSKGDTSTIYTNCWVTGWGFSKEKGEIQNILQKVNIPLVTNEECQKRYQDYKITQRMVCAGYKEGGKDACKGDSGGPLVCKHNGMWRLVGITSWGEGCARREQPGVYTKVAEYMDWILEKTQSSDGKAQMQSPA
Chain of Human Plasma Kallikrein (P03952 20-390 partner limits assumed): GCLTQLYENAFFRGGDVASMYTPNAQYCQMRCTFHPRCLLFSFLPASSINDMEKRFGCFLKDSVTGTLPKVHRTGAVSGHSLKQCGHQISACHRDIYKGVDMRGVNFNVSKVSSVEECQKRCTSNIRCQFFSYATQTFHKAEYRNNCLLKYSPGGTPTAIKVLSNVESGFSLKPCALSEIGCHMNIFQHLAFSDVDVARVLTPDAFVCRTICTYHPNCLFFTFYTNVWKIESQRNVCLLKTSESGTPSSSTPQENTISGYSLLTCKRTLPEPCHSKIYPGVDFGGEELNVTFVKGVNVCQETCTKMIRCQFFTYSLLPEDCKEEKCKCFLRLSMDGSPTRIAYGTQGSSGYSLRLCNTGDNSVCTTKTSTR
Description: as §1

[4] = molecular target: Bovine Thrombin (Bos taurus, UniProt P00735); test: Inhibitory effect on ester-hydrolyzing activity of bovine thrombin (TAMe substrate); assay type: biochemical; settings: for inhibition at 1000 µM: at 10^-3 M, in vitro, TAMe, read-out: Thrombin percent inhibition
Description: The enzyme-inhibitory activities in vitro of the compounds of this invention were measured by the following procedure according to the method of M. Muramatsu et al. [M. Muramatsu, T. Onishi, S. Makino, Y. Hayashi and S. Fujii: J. Biochem., 58, 214 (1965)]
To 0.1 ml of trypsin (5 μg/ml) were added 0.5 ml of 0.1 M borate buffer solution (pH 8.6) containing 10 mM CaCl2, and 0.1 ml of a varying concentration of an inhibitor solution, and preincubation was carried out at 37° C. for 5 minutes. Then, 10 μmoles of the substrate, TAMe (tosylarginine methyl ester), was added, and incubation was preformed at 37° C. for 30 minutes.
After the incubation, 1.5 ml of 2 M alkaline hydroxylamine was added and thoroughly mixed, and allowed to stand at room temperature for 15 minutes. Then, 1.0 ml of each of 18% trichloroacetic acid, 4 N HCl and 10% FeCl3 was added and thoroughly mixed. If necessary, the mixture was centrifuged at 3,000 rpm for 10 minutes, and the absorbance of the supernatant was measured at 530 nm.
It was measured by using 0.4 ml of bovine thrombin […], 0.02 M sodium phosphate buffer solution (pH 7.4) and TAMe as substrate following the method described in (1).

[5] = molecular target: Human Plasmin (Homo sapiens, UniProt P00747); test: Inhibitory effect on ester-hydrolyzing activity of human plasmin (TAMe substrate); assay type: biochemical; settings: for inhibition at 1000 µM: read-out: Plasmin percent inhibition; for IC50: Table 4 bracketed value, read-out: Plasmin ID50
Chain of Human Plasmin (P00747 581-810 limits assumed): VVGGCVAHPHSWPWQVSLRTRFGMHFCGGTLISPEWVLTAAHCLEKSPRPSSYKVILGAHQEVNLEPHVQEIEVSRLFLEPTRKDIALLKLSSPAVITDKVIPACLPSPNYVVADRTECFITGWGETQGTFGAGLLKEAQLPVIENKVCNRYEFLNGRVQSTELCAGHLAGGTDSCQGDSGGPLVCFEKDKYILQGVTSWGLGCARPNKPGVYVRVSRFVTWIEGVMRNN
Chain of Human Plasmin (P00747 97-580 partner limits assumed): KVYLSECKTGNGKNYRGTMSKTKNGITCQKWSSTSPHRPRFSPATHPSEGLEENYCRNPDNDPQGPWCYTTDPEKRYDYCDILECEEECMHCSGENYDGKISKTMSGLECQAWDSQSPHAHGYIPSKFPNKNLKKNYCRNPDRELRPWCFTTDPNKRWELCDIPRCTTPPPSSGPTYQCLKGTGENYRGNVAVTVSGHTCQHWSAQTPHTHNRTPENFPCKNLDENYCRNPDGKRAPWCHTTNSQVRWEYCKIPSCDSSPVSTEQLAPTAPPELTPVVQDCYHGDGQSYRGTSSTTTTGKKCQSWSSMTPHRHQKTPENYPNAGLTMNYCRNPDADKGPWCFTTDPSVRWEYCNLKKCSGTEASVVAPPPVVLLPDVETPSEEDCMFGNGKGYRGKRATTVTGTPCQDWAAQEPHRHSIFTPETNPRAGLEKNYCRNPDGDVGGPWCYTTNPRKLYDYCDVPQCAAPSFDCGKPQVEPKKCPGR
Description: The enzyme-inhibitory activities in vitro of the compounds of this invention were measured by the following procedure according to the method of M. Muramatsu et al. [[…]. […] After the incubation, 1.5 ml of 2 M alkaline hydroxylamine was added and thoroughly mixed, and allowed to stand at room temperature for 15 minutes. […] It was measured by using 0.1 ml of plasmin (generated by activation of plasminogen with streptokinase) and TAMe as substrate following the method described in (1).

[6] = system: thrombin; test: Inhibitory activity on thrombus formation: protection from lethal thrombin injection in mice; assay type: in vivo, mice (ddY strain); settings: 10 minutes before thrombin 300 NIH units/kg i.v., No. 91 in 2.5% gum arabic
Description: White male mice (ddY strain), 4 weeks age and weighing 18-27 g, were used throughout the experiments. […] The intravenous injection of 300 NIH units/kg of thrombin over 30 seconds into mice was lethal to all animals. The compounds were intraperitoneally administered in doses of 1, 10, and 100 mg/kg in saline unless otherwise described.
Compounds were intraperitoneally administered 10 minutes before thrombin injection. Compound No. 91 was dissolved in 2.5% gum arabic.

| Structure (SMILES) | IC50 ([1]; in vitro, TAMe) [µM] | inhibition at 1000 µM [2] [%] | IC50 ([3]; in vitro, TAMe) [µM] | IC50 [4] [µM] | inhibition at 1000 µM ([5]; at 10^-3 M, in vitro, TAMe) [%] | IC50 ([2]; in vitro, ATEe) [µM] | inhibition at 1000 µM [4] [%] | IC50 ([5]; in vitro, TAMe) [µM] | inhibition at 1000 µM [1] [%] | other results |
| --- | --- | --- | --- | --- | --- | --- | --- | --- | --- | --- |
| COc1ccc(OC(=O)C2CCCc3ccc(NC(=N)N)cc32)cc1.Cl (stereo not shown) [Compound 138, p-methoxyphenyl 7-guanidino-1,2,3,4-tetrahydro-1-naphthoate hydrochloride] | 1000 | 39 | 280 | 32 | 17 | – | – | – | – | % protective ([6]; 1 mg/kg i.p.): 0%; Survived / Tested ([6]; 1 mg/kg i.p.): 0/10; % protective ([6]; 10 mg/kg i.p.): 20%; Survived / Tested ([6]; 10 mg/kg i.p.): 2/10; % protective ([6]; 100 mg/kg i.p.): 30%; Survived / Tested ([6]; 100 mg/kg i.p.): 3/10 |
| CN(C)C(=O)COC(=O)CCc1ccc(OC(=O)C2CCCc3ccc(N)cc32)cc1 (stereo not shown) [Compound 103] | 78 | 27.2 | – | 1000 | 21.5 | – | – | – | – | inhibition at 1000 µM ([3]; at 10^-3 M, in vitro, TAMe): 13.3% |
| N=C(N)Nc1cccc2c1CCCC2C(=O)Oc1ccc(C(=O)OCc2ccccc2)cc1 (stereo not shown) [Compound 124] | 75 | – | 190 | – | – | 1000 | 45 | 60 | – | – |
| Nc1cccc2c1CCCC2C(=O)Oc1ccc(OC(=O)C2CCCc3c(N)cccc32)cc1 (stereo not shown) [Compound 78] | 36 | – | 360 | – | < 3.2 | – | 24.4 | – | – | inhibition at 1000 µM ([2]; at 10^-3 M, in vitro, ATEe): 15.2% |
| COC(=O)c1ccc(OC(=O)C2CCCc3ccc(N)cc32)cc1 (stereo not shown) [Compound 91] | 17 | 27.4 | – | 210 | 40.7 | – | – | – | – | % protective ([6]; 1 mg/kg i.p.): 0%; Survived / Tested ([6]; 1 mg/kg i.p.): 0/10; % protective ([6]; 10 mg/kg i.p.): 0%; Survived / Tested ([6]; 10 mg/kg i.p.): 0/10; % protective ([6]; 100 mg/kg i.p.): 20%; Survived / Tested ([6]; 100 mg/kg i.p.): 2/10 |
| COc1cccc(OC(=O)C2CCCc3ccc(NC(=N)N)cc32)c1 (stereo not shown) [Compound 139] | – | – | – | 260 | – | 450 | – | 1000 | 46 | inhibition at 1000 µM [3]: 36.7% |
| CN(C)C(=O)COC(=O)CCc1ccc(OC(=O)C2CCCc3ccc(NC(=N)N)cc32)cc1 (stereo not shown) [Compound 158] | – | – | 420 | 100 | – | 700 | – | 400 | 29.1 | – |
| Cc1ccc(OC(=O)C2CCCc3ccc(NC(=N)N)cc32)cc1 (stereo not shown) [Compound 136] | – | – | – | 900 | – | 540 | – | – | 17.5 | inhibition at 1000 µM [3]: < 3.2%; inhibition at 1000 µM [5]: < 3.2% |
| CCCCOc1ccc(OC(=O)C2CCCc3c(NC(=N)N)cccc32)cc1 (stereo not shown) [Compound 116] | – | – | – | 1000 | – | 350 | – | 1000 | < 3.2 | inhibition at 1000 µM [3]: 29.3% |
| CCOC(=O)COC(=O)CCc1ccc(OC(=O)C2CCCc3ccc(NC(=N)N)cc32)cc1 (stereo not shown) [Compound 157] | – | – | – | 120 | – | 420 | – | 210 | 48.8 | inhibition at 1000 µM [3]: 48.5% |
| CN(C)C(=O)COC(=O)c1ccc(OC(=O)C2CCCc3c(N)cccc32)cc1 (stereo not shown) [Compound 72] | 25 | < 3.2 | 1000 | 120 | < 3.2 | – | – | – | – | – |
| CCOC(=O)COC(=O)c1ccc(OC(=O)C2CCCc3ccc(N)cc32)cc1 (stereo not shown) [Compound 98] | 60 | – | – | – | 24.6 | – | 40.5 | – | – | inhibition at 1000 µM ([2]; at 10^-3 M, in vitro, ATEe): < 3.2%; inhibition at 1000 µM ([3]; at 10^-3 M, in vitro, TAMe): < 3.2% |
| Nc1ccc2c(c1)C(C(=O)Oc1ccc(OC(=O)C3CCCc4ccc(N)cc43)cc1)CCC2 (stereo not shown) [Compound 106] | 92 | – | – | – | < 3.2 | – | 35 | – | – | inhibition at 1000 µM ([2]; at 10^-3 M, in vitro, ATEe): 31%; inhibition at 1000 µM ([3]; at 10^-3 M, in vitro, TAMe): < 3.2% |
| N=C(N)Nc1ccc2c(c1)C(C(=O)Oc1cccc3c1CCCC3)CCC2 (stereo not shown) [Compound 167] | – | – | 200 | – | – | 420 | < 3.2 | 1000 | – | inhibition at 1000 µM ([1]; at 10^-3 M, in vitro, TAMe): 44.8% |
| N#Cc1ccc(OC(=O)C2CCCc3ccc(NC(=N)N)cc32)cc1 (stereo not shown) [Compound 163] | 130 | – | 52 | 17 | – | 400 | – | 73 | – | – |
| NC(=O)COC(=O)c1ccc(OC(=O)C2CCCc3c(N)cccc32)cc1 (stereo not shown) [Compound 71] | 31 | 30.6 | – | 62 | – | – | – | 54 | – | inhibition at 1000 µM ([3]; at 10^-3 M, in vitro, TAMe): 23.4% |

Reference: patent US4214093A, “Amino- or guanidino-1,2,3,4-tetrahydro-1-naphthoic esters” (Torii & Co., Ltd., priority 1977, dated 1980)
